Target: T1, Human CaV2.2 channels (Homo sapiens, UniProt Q00975)
T1 construct: expressed in transfected cells
Assay: Fluorescent assay for CaV2.2 channels using potassium depolarization to induce channel opening (FLIPR, Fluo 4)
Format: cell-based
Details: read-out: Activity Category: %-Inhib (CaV2.2) @3 μM @30 mM KCl; 3 μM test compound; 30 mM KCl as printed; HEK293 cells stably expressing human CaV2.2
From the text: In the process, the Ca^2+ influx is quantified in the FLIPR assay with the aid of a Ca^2+-sensitive dye (type Fluo-4, Molecular Probes Europe BV, Leiden, the Netherlands) in a fluorescent imaging plate reader (FLIPR 3, Molecular Devices, Sunnyvale, USA), as described hereinafter.
Human CaV2.2 channels were stably expressed in HEK293 cells together with alpha2-delta and beta subunits of voltage gated calcium channels. In addition, an inwardly rectifying potassium channel (Kir2.3) was stably expressed in these cells to augment control of the cell membrane potential by the concentration of extracellular potassium ions. Raise of the extracellular potassium concentration leads to depolarization of the membrane potential and thus regulates the voltage dependent state of CaV2.2 channels. For preparation, cells were seeded in black poly-D-lysine coated 96-well plates (Becton Dickinson, Biocoat 4640) in 100 μL medium [500 mL DMEM/F-12 plus Glutamax (Invitrogen 31331-093) plus 5.5 mL MEM NEAA 100× (Invitrogen 11140-035) plus 50 mL FBS decomplemented (Invitrogen 10270-106) plus 200 μg/mL Geneticin (Invitrogen 10131-027) plus 50 μg/mL Hygromycin B (Invitrogen 10687-010) plus 2 μg/mL Blasticidin (anti-bl5b Invivo-Gen) plus 0.2 μg/mL Puromycin (A 11138-03)] at a cell density of 30.000 cells per well. Plates were incubated at 37° C. (5% CO2) for 20 to 23 h. On the day of experiment medium was discarded and cells were loaded with Fluo 4 by addition of 100 μL of basic assay buffer (10 mM HEPES, 1 mM KCl, 149 mM NaCl, 0.8 mM CaCl2, 1.7 mM MgCl2, 10 mM Glucose, 0.1% BSA. pH 7.4) containing 2 μM Fluo 4 (Molecular Probes; F-14201), 0.01% pluronic acid (Molecular Probes; P-6866) and 2.5 mM probenecid (Molecular Probes; P36400). Cells were incubated in the dark at 25° C. for 60 min. Then dye containing buffer was discarded and 100 μL basic (1 mM KCl) or alternative (30 mM KCl) assay buffer was added. The alternative assay buffer contained altered concentrations of KCl (30 mM) and NaCl (120 mM) and was used in order to promote the inactivated channel state. After that 25 μL of basic or alternative assay buffer with or without test compound were added and cells were incubated again in the dark at 25° C. for 15 min. Fluorescence intensity was measured on a FLIPR 3 instrument (Molecular Devices Corp., Sunnyvale, Calif.) with excitation at 480 nm and emission at 535 nm. After continuously reading fluorescence for 30 sec, 50 μL of basic assay buffer containing 210 mM KCl (NaCl omitted) were added for depolarization. Peak fluorescent signal intensity was determined and the amplitude of the peak signal, normalized to base line, was used to measure channel inhibition by test compounds.

T1 sequence (Q00975 whole entry): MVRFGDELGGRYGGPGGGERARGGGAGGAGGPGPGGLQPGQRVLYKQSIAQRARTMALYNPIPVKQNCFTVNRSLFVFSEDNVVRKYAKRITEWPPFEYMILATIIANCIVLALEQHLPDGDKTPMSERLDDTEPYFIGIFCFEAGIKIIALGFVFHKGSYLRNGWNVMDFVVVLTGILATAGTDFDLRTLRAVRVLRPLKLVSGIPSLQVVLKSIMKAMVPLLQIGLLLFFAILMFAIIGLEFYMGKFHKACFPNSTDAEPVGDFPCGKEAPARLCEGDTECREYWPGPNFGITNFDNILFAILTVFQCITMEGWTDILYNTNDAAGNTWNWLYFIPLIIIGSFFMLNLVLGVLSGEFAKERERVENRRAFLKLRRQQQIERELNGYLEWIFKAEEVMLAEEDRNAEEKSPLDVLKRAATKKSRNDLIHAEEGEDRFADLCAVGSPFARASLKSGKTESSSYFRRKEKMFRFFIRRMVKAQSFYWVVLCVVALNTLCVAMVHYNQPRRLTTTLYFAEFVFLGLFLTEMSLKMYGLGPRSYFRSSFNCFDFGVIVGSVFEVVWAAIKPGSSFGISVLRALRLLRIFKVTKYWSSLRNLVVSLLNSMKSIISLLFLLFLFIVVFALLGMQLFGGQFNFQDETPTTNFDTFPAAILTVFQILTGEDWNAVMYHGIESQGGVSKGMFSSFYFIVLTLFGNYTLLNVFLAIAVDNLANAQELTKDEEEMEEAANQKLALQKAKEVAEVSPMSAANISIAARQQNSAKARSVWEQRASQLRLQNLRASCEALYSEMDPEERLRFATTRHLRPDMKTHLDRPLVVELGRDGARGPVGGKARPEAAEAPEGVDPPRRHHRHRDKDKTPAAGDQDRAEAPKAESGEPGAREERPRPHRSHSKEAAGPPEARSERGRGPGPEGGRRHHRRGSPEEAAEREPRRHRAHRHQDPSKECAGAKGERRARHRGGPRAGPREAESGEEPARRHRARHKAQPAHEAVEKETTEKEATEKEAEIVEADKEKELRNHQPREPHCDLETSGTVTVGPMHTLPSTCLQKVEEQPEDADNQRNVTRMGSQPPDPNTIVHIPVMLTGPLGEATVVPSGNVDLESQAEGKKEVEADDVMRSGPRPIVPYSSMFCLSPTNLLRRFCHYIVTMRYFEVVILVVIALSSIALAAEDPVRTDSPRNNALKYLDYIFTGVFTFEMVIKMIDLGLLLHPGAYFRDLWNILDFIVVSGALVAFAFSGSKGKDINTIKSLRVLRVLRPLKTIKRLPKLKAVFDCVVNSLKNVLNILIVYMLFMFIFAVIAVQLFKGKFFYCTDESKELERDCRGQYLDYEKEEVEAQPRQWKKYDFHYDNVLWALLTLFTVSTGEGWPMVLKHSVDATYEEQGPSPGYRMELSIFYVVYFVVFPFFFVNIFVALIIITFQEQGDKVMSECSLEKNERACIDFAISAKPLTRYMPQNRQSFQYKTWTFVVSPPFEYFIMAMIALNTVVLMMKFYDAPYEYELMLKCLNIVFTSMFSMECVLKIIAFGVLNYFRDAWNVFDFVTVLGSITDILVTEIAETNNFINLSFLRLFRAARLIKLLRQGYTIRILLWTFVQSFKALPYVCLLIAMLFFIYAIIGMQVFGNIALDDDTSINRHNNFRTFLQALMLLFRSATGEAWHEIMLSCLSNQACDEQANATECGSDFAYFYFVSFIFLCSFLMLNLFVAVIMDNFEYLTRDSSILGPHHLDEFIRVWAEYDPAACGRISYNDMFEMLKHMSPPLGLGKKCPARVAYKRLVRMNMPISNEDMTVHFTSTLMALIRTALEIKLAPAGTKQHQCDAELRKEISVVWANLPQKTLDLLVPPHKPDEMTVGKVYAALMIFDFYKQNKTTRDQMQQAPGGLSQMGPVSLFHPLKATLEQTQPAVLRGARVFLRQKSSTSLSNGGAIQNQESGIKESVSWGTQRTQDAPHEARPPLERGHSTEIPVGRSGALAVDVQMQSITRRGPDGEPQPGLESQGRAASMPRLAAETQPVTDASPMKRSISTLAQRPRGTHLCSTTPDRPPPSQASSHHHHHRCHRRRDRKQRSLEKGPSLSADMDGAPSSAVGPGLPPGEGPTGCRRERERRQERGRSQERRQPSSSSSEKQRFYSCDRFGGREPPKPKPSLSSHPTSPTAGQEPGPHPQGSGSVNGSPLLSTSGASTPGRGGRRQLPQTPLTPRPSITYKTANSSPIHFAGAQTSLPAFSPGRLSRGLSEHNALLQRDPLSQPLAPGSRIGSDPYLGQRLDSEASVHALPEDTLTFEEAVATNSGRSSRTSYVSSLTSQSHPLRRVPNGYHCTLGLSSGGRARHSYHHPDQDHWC
T1 sequence (P54289 25-1103, further chain): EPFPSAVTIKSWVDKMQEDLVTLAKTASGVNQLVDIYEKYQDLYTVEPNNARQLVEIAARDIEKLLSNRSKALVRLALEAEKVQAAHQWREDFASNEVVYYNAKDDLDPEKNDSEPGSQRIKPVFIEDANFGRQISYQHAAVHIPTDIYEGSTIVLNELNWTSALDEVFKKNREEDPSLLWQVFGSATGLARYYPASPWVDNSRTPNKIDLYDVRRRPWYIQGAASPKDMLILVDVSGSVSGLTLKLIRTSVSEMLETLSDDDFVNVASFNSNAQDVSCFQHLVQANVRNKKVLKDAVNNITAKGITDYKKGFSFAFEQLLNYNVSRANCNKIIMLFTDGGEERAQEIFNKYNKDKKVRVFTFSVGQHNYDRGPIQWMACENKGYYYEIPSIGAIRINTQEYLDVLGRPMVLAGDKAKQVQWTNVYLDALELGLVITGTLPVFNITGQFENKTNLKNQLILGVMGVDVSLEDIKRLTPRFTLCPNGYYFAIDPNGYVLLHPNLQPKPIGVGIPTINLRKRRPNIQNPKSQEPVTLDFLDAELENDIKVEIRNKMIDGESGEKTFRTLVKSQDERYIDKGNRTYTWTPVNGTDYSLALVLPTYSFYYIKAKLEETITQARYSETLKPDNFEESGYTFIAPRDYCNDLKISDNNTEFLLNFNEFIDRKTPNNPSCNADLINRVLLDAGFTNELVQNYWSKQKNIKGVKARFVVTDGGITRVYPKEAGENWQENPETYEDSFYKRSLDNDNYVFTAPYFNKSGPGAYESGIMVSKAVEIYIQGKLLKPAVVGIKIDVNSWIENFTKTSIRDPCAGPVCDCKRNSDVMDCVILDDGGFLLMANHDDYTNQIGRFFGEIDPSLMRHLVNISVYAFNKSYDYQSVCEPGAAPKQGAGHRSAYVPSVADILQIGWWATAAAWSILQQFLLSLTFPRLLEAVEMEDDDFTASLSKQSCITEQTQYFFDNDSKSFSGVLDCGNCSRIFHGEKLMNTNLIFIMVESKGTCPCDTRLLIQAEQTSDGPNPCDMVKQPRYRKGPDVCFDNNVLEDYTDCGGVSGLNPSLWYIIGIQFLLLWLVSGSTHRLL
T1 sequence (P54284 whole entry, further chain): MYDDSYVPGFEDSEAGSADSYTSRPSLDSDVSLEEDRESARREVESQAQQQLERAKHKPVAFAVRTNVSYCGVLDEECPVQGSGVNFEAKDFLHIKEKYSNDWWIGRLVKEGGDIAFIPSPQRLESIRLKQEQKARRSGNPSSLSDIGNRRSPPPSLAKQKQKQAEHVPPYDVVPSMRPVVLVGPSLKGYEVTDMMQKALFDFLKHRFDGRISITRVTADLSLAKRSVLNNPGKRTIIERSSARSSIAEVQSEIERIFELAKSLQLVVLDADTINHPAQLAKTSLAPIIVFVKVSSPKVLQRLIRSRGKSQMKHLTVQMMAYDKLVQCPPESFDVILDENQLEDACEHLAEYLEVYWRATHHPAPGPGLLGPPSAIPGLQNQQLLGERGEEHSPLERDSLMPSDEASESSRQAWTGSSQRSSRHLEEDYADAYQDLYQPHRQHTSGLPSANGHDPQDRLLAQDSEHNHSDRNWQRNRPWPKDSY

| Compound | inhibition at 3 µM |
| --- | --- |
| CCc1cc(Cn2c(C(=O)N(C)CCS(C)(=O)=O)c(-c3ccc(Cl)cc3)c(C)c2C(F)(F)F)on1 [Example 001, 3-(4-Chlorophenyl)-1-[(3-ethyl-isoxazol-5-yl)-methyl]-N,4-dimethyl-N-(2-methylsulfonyl-ethyl)-5-(trifluoromethyl)-1H-pyrrole-2-carboxylic acid amide] | > 95% |
| Cc1c(-c2ccc(Cl)cc2)c(C(=O)N(C)CCS(C)(=O)=O)n(Cc2nccn2C)c1C(F)(F)F [Example 002, 3-(4-Chlorophenyl)-N,4-dimethyl-1-[(1-methyl-1H-imidazole-2-yl)-methyl]-N-(2-methylsulfonyl-ethyl)-5-(trifluoromethyl)-1H-pyrrole-2-carboxylic acid amide] | 40 to 75% |
| Cc1c(-c2ccc(Cl)cc2)c(C(=O)N(C)CCS(C)(=O)=O)n(Cc2cncn2C)c1C(F)(F)F [Example 003, 3-(4-Chlorophenyl)-N,4-dimethyl-1-[(3-methyl-3H-imidazole-4-yl)-methyl]-N-(2-methylsulfonyl-ethyl)-5-(trifluoromethyl)-1H-pyrrole-2-carboxylic acid amide] | 40 to 75% |
| CN(CC(C)(C)C)C(=O)c1c(-c2ccc(Cl)cc2)cc(C(F)(F)F)n1Cc1ccnn1C [Example 008, 3-(4-Chlorophenyl)-N-(2,2-dimethyl-propyl)-N-methyl-1-[(2-methyl-2H-pyrazol-3-yl)-methyl]-5-(trifluoromethyl)-1H-pyrrole-2-carboxylic acid amide] | 75 to 95% |
| CN(CC(C)(C)C)C(=O)c1c(-c2ccc(Cl)cc2)cc(C(F)(F)F)n1Cc1cn(C)nn1 [Example 009, 3-(4-Chlorophenyl)-N-(2,2-dimethyl-propyl)-N-methyl-1-[(1-methyl-1H-[1,2,3]triazol-4-yl)-methyl]-5-(trifluoromethyl)-1H-pyrrole-2-carboxylic acid amide] | 75 to 95% |
| CN(CC(C)(C)C)C(=O)c1c(-c2ccc(Cl)cc2)cc(C(F)(F)F)n1Cc1nc(C(F)(F)F)no1 [Example 010, 3-(4-Chlorophenyl)-N-(2,2-dimethyl-propyl)-N-methyl-5-(trifluoromethyl)-1-[[3-(trifluoromethyl)-[1,2,4]oxadiazol-5-yl]-methyl]-1H-pyrrole-2-carboxylic acid amide] | 75 to 95% |
| Cc1noc(Cn2c(C(F)(F)F)cc(-c3ccc(Cl)cc3)c2C(=O)N(C)CC(C)(C)C)n1 [Example 011, 3-(4-Chlorophenyl)-N-(2,2-dimethyl-propyl)-N-methyl-1-[(3-methyl-[1,2,4]oxadiazol-5-yl)-methyl]-5-(trifluoromethyl)-1H-pyrrole-2-carboxylic acid amide] | > 95% |
| Cc1nc(Cn2c(C(F)(F)F)cc(-c3ccc(Cl)cc3)c2C(=O)N(C)CC(C)(C)C)no1 [Example 012, 3-(4-Chlorophenyl)-N-(2,2-dimethyl-propyl)-N-methyl-1-[(5-methyl-[1,2,4]oxadiazol-3-yl)-methyl]-5-(trifluoromethyl)-1H-pyrrole-2-carboxylic acid amide] | > 95% |
| CN(CC(C)(C)C)C(=O)c1c(-c2ccc(Cl)cc2)cc(C(F)(F)F)n1Cc1ncn(C)n1 [Example 013, 3-(4-Chlorophenyl)-N-(2,2-dimethyl-propyl)-N-methyl-1-[(1-methyl-1H-[1,2,4]triazol-3-yl)-methyl]-5-(trifluoromethyl)-1H-pyrrole-2-carboxylic acid amide] | 75 to 95% |
| Cc1nnc(Cn2c(C(F)(F)F)cc(-c3ccc(Cl)cc3)c2C(=O)N(C)CC(C)(C)C)o1 [Example 014, 3-(4-Chlorophenyl)-N-(2,2-dimethyl-propyl)-N-methyl-1-[(5-methyl-[1,3,4]oxadiazol-2-yl)-methyl]-5-(trifluoromethyl)-1H-pyrrole-2-carboxylic acid amide] | 75 to 95% |
| Cc1noc(Cn2c(C(=O)N(C)CCS(C)(=O)=O)c(-c3ccc(Cl)cc3)c(C)c2C(F)(F)F)n1 [Example 015, 3-(4-Chlorophenyl)-N,4-dimethyl-1-[(3-methyl-[1,2,4]oxadiazol-5-yl)-methyl]-N-(2-methylsulfonyl-ethyl)-5-(trifluoromethyl)-1H-pyrrole-2-carboxylic acid amide] | 75 to 95% |
| Cc1c(-c2ccc(Cl)cc2)c(C(=O)N2CCOCC2)n(Cc2ccnn2C)c1C(F)(F)F [Example 016, [3-(4-Chlorophenyl)-4-methyl-1-[(2-methyl-2H-pyrazol-3-yl)-methyl]-5-(trifluoromethyl)-1H-pyrrol-2-yl]-morpholin-4-yl-methanone] | 75 to 95% |
| Cc1c(-c2ccc(Cl)cc2)c(C(=O)N2CCOCC2)n(Cc2cn(C)nn2)c1C(F)(F)F [Example 017, [3-(4-Chlorophenyl)-4-methyl-1-[(1-methyl-1H-[1,2,3]triazol-4-yl)-methyl]-5-(trifluoromethyl)-1H-pyrrol-2-yl]-morpholin-4-yl-methanone] | 40 to 75% |
| Cc1noc(Cn2c(C(=O)N3CCOCC3)c(-c3ccc(Cl)cc3)c(C)c2C(F)(F)F)n1 [Example 018, [3-(4-Chlorophenyl)-4-methyl-1-[(3-methyl-[1,2,4]oxadiazol-5-yl)-methyl]-5-(trifluoromethyl)-1H-pyrrol-2-yl]-morpholin-4-yl-methanone] | > 95% |
| Cc1c(-c2ccc(Cl)cc2)c(C(=O)N2CCOCC2)n(Cc2ncn(C)n2)c1C(F)(F)F [Example 019, [3-(4-Chlorophenyl)-4-methyl-1-[(1-methyl-1H-[1,2,4]triazol-3-yl)-methyl]-5-(trifluoromethyl)-1H-pyrrol-2-yl]-morpholin-4-yl-methanone] | 75 to 95% |
| Cc1c(-c2ccc(Cl)cc2)c(C(=O)N2CCS(=O)(=O)CC2)n(Cc2cn(C)cn2)c1C(F)(F)F [Example 022, [3-(4-Chlorophenyl)-4-methyl-1-[(1-methyl-1H-imidazol-4-yl)-methyl]-5-(trifluoromethyl)-1H-pyrrol-2-yl]-(1,1-dioxo-[1,4]thiazinan-4-yl)-methanone] | 40 to 75% |
| Cc1c(-c2ccc(Cl)cc2)c(C(=O)N2CCOCC2)n(Cc2cnn(C)c2)c1C(F)(F)F [Example 023, [3-(4-Chlorophenyl)-4-methyl-1-[(1-methyl-1H-pyrazol-4-yl)-methyl]-5-(trifluoromethyl)-1H-pyrrol-2-yl]-morpholin-4-yl-methanone] | > 95% |
| Cc1c(-c2ccc(Cl)cc2)c(C(=O)N2CCOCC2)n(Cc2nncs2)c1C(F)(F)F [Example 024, [3-(4-Chlorophenyl)-4-methyl-1-([1,3,4]thiadiazol-2-yl-methyl)-5-(trifluoromethyl)-1H-pyrrol-2-yl]-morpholin-4-yl-methanone] | 40 to 75% |
| CN(CC(C)(C)C)C(=O)c1c(-c2ccc(Cl)cc2)cc(C(F)(F)F)n1Cc1nccn1C [Example 025, 3-(4-Chlorophenyl)-N-(2,2-dimethyl-propyl)-N-methyl-1-[(1-methyl-1H-imidazole-2-yl)-methyl]-5-(trifluoromethyl)-1H-pyrrole-2-carboxylic acid amide] | 75 to 95% |
| CN(CC(C)(C)C)C(=O)c1c(-c2ccc(Cl)cc2)cc(C(F)(F)F)n1Cc1cncn1C [Example 026, 3-(4-Chlorophenyl)-N-(2,2-dimethyl-propyl)-N-methyl-1-[(3-methyl-3H-imidazole-4-yl)-methyl]-5-(trifluoromethyl)-1H-pyrrole-2-carboxylic acid amide] | 75 to 95% |
| CN(CC(C)(C)C)C(=O)c1c(-c2ccc(Cl)cc2)cc(C(F)(F)F)n1Cc1nncn1C [Example 027, 3-(4-Chlorophenyl)-N-(2,2-dimethyl-propyl)-N-methyl-1-[(4-methyl-4H-[1,2,4]triazol-3-yl)-methyl]-5-(trifluoromethyl)-1H-pyrrole-2-carboxylic acid amide] | 40 to 75% |
| Cc1c(-c2ccc(Cl)cc2)c(C(=O)N2CCOCC2)n(Cc2cncc(Cl)c2)c1C(F)(F)F [Example 028, [3-(4-Chlorophenyl)-1-[(5-chloro-pyridin-3-yl)-methyl]-4-methyl-5-(trifluoromethyl)-1H-pyrrol-2-yl]-morpholin-4-yl-methanone] | > 95% |
